This passage reports Ki results from patent US8344008B2 (Janssen Pharmaceutica NV, priority 2007, dated 2013).

Each structure is given as a SMILES string.

One may read the Ki as a measure of affinity in units of concentration, obtained from inhibition or displacement.

The target of this experiment is T1, recombinant human LTA4 hydrolase (rhLTA4H) (Homo sapiens, UniProt P09960).
T1 construct: made in house; host or cells: Spodoptera frugiperda (Sf-9) cells, baculovirus (pFastBac1)
T1 sequence (P09960 1-611): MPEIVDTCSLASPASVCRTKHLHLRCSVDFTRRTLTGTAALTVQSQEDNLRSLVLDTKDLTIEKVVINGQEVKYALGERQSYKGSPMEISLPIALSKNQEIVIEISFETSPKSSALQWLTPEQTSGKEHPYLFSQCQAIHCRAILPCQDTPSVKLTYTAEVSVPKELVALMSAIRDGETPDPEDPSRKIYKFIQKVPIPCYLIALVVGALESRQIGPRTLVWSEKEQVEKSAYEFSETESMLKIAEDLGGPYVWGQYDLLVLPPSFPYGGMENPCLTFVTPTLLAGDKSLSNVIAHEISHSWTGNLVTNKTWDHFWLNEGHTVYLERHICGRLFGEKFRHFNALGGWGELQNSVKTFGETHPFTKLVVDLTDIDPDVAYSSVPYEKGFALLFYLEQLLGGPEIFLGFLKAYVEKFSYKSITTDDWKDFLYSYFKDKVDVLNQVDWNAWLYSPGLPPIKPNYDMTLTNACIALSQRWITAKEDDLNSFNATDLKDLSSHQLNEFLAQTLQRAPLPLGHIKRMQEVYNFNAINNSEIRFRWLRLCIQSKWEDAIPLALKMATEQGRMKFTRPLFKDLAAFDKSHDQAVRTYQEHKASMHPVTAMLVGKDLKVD
Description: Recombinant Human LTA4 Hydrolase Assay for LTA4 Hydrolase Inhibitor Activity. In kind it is biochemical. The settings on record: average of results obtained; LTB4 quantified by enzyme-linked immunoassay. An outline of the steps:
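Baculovirus/Sf-9-expressed human LTA4 hydrolase (36 ng) preincubated with compound 10 min at rt in 0.1 M potassium phosphate pH 7.4, 5 mg/mL fatty-acid-free BSA. Reaction started with 9 ng LTA4 free acid, run 10 min at rt; LTB4 measured by enzyme immunoassay, IC50 from 4-parameter fit.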
With `O=C(c1ccc[nH]1)N1C[C@@H]2C[C@H]1CN2CCOc1ccc(Oc2nc3ccccc3s2)cc1` [Example 65, (S,S)-(5-{2-[4-(Benzothiazol-2-yloxy)-phenoxy]-ethyl}-2,5-diaza-bicyclo[2.2.1]hept-2-yl)-(1H-pyrrol-2-yl)-methanone], the Ki came to 64 nM.
Then `NCC(=O)N1C[C@@H]2C[C@H]1CN2CCOc1ccc(Oc2nc3ccccc3s2)cc1` [Example 31, (S,S)-2-Amino-1-(5-{2-[4-(benzothiazol-2-yloxy)-phenoxy]-ethyl}-2,5-diaza-bicyclo[2.2.1]hept-2-yl)-ethanone], with 76 nM; and `CC(C)(C)OC(=O)NCC(=O)N1C[C@@H]2C[C@H]1CN2CCOc1ccc(Oc2nc3ccccc3s2)cc1` [Example 30, (S,S)-[2-(5-{2-[4-(Benzothiazol-2-yloxy)-phenoxy]-ethyl}-2,5-diaza-bicyclo[2.2.1]hept-2-yl)-2-oxo-ethyl]-carbamic acid tert-butyl ester], with 16 nM.
Then `NC(=O)N1CC2CN(CCOc3ccc(Oc4nc5ccccc5s4)cc3)CC2C1` (stereo not drawn) [Example 134, 5-{2-[4-(Benzothiazol-2-yloxy)-phenoxy]-ethyl}-hexahydro-pyrrolo[3,4-c]pyrrole-2-carboxylic acid amide], with 32 nM; and `O=C(c1ccno1)N1CC2CN(Cc3ccc(Oc4nc5ccccc5s4)cc3)CC2C1` (stereo not drawn) [Example 114, {5-[4-(Benzothiazol-2-yloxy)-benzyl]-hexahydro-pyrrolo[3,4-c]pyrrol-2-yl}-isoxazol-5-yl-methanone], with 33 nM; and `CC(=O)N1CC2CN(Cc3ccc(Cc4nc5ccccc5s4)cc3)CC2C1` (stereo not drawn) [Example 149, 1-[5-(4-Benzothiazol-2-ylmethyl-benzyl)-hexahydro-pyrrolo[3,4-c]pyrrol-2-yl]-ethanone], with 79 nM.
For the molecule `O=C(c1ccco1)N1CC2CN(Cc3ccc(Oc4nc5ccccc5s4)cc3)CC2C1` (stereo not drawn) [Example 106, {5-[4-(Benzothiazol-2-yloxy)-benzyl]-hexahydro-pyrrolo[3,4-c]pyrrol-2-yl}-furan-2-yl-methanone], the Ki is 3 nM.
Then `CS(=O)(=O)N1CCC2CN(Cc3ccc(Oc4nc5ccccc5s4)cc3)CC2C1` (stereo not drawn) [Example 130, 2-[4-(5-Methanesulfonyl-octahydro-pyrrolo[3,4-c]pyridin-2-ylmethyl)-phenoxy]-benzothiazole], with 21 nM; and `Cc1ccc2nc(Oc3ccc(CN4[C@@H]5CC[C@H]4C[C@H](NS(C)(=O)=O)C5)cc3)sc2c1` [Example 200, meso-exo-N-{8-[4-(6-Methyl-benzothiazol-2-yloxy)-benzyl]-8-aza-bicyclo[3.2.1]oct-3-yl}-methanesulfonamide], with 65 nM.
Regarding `NC(=O)NC1[C@H]2CN(Cc3ccc(Oc4nc5ccccc5s4)cc3)C[C@@H]12` (stereo partly drawn) [Example 140, (R,S)-{3-[4-(Benzothiazol-2-yloxy)-benzyl]-3-aza-bicyclo[3.1.0]hex-6-yl}-urea], the Ki amounted to 19 nM.
Then `CC(=O)N1CCC2CN(Cc3ccc(Oc4nc5ccccc5s4)cc3)CC21` (stereo not drawn) [Example 87, 1-{5-[4-(Benzothiazol-2-yloxy)-benzyl]-hexahydro-pyrrolo[3,4-b]pyrrol-1-yl}-ethanone], with 36 nM.
Regarding `CC(=O)N[C@@H]1C[C@H]2CC[C@@H](C1)N2CCc1ccc(Oc2nc3cccc(F)c3s2)cc1` [Example 254, meso-exo-N-(8-{2-[4-(7-Fluoro-benzothiazol-2-yloxy)-phenyl]-ethyl}-8-aza-bicyclo[3.2.1]oct-3-yl)-acetamide], the Ki was 115 nM.
Then `CS(=O)(=O)N1[C@@H]2CC[C@H]1C[C@H](NCCOc1ccc(Oc3nc4c(F)cccc4s3)cc1)C2` [Example 213, meso-exo-{2-[4-(4-Fluoro-benzothiazol-2-yloxy)-phenoxy]-ethyl}-(8-methanesulfonyl-8-aza-bicyclo[3.2.1]oct-3-yl)-amine], with 20 nM; and `CC(=O)N(C)[C@H]1C[C@H]2CC[C@@H](C1)N2Cc1ccc(Oc2nc3ccccc3s2)cc1` [Example 70, meso-endo-N-{8-[4-(Benzothiazol-2-yloxy)-benzyl]-8-aza-bicyclo[3.2.1]oct-3-yl}-N-methyl-acetamide], with 4 nM.
For the molecule `NC(=O)N1C[C@H]2C[C@@H]1CN2Cc1ccc(Oc2nc3c(F)cccc3s2)cc1` [Example 186, (R,R)-5-[4-(4-Fluoro-benzothiazol-2-yloxy)-benzyl]-2,5-diaza-bicyclo[2.2.1]heptane-2-carboxylic acid amide], the Ki stood at 10 nM.
Then `CS(=O)(=O)N1C[C@H]2C[C@@H]1CN2CCc1ccc(Oc2nc3cccc(Cl)c3s2)cc1` [Example 192, (R,R)-7-Chloro-2-{4-[2-(5-methanesulfonyl-2,5-diaza-bicyclo[2.2.1]hept-2-yl)-ethyl]-phenoxy}-benzothiazole], with more than 10000 nM.
Then `CS(=O)(=O)N[C@H]1C[C@H]2CC[C@@H](C1)N2Cc1ccc(Oc2nc3c(Cl)cccc3s2)cc1` [Example 167, meso-endo-N-{8-[4-(4-Chloro-benzothiazol-2-yloxy)-benzyl]-8-aza-bicyclo[3.2.1]oct-3-yl}-methanesulfonamide], with 33 nM; and `O=C(c1ccc[nH]1)N1C[C@@H]2C[C@H]1CN2Cc1ccc(Oc2nc3ccccc3s2)cc1` [Example 62, (S,S)-{5-[4-(Benzothiazol-2-yloxy)-benzyl]-2,5-diaza-bicyclo[2.2.1]hept-2-yl}-(1H-pyrrol-2-yl)-methanone], with 36 nM.
On to `O=C(c1ccoc1)N1CC2CN(Cc3ccc(Oc4nc5ccccc5s4)cc3)CC2C1` (stereo not drawn) [Example 110, {5-[4-(Benzothiazol-2-yloxy)-benzyl]-hexahydro-pyrrolo[3,4-c]pyrrol-2-yl}-furan-3-yl-methanone], for which the Ki turned out to be 88 nM.
Then `CC(C)(O)C(=O)N1C2CCC1CN(Cc1ccc(Oc3nc4ccccc4s3)cc1)C2` [Example 53, meso-1-{3-[4-(Benzothiazol-2-yloxy)-benzyl]-3,8-diaza-bicyclo[3.2.1]oct-8-yl}-2-hydroxy-2-methyl-propan-1-one], with 117 nM; and `CC(=O)N[C@H]1C[C@H]2CC[C@@H](C1)N2Cc1ccc(Oc2nc3c(F)cccc3s2)cc1` [Example 68, meso-endo-N-{8-[4-(4-Fluoro-benzothiazol-2-yloxy)-benzyl]-8-aza-bicyclo[3.2.1]oct-3-yl}-acetamide], with 2 nM.
Then `CC(=O)N1C[C@H]2C[C@@H]1CN2CCOc1ccc(Oc2nc3cccc(F)c3s2)cc1` [Example 249, (R,R)-1-(5-{2-[4-(7-Fluoro-benzothiazol-2-yloxy)-phenoxy]-ethyl}-2,5-diaza-bicyclo[2.2.1]hept-2-yl)-ethanone], with 11 nM; and `NC(=O)N1CC2CN(Cc3ccc(Oc4nc5ccc(F)cc5s4)cc3)CC2C1` (stereo not drawn) [Example 144, 5-[4-(6-Fluoro-benzothiazol-2-yloxy)-benzyl]-hexahydro-pyrrolo[3,4-c]pyrrole-2-carboxylic acid amide], with 101 nM; and `O=C(C1CCC1)N1CC2CN(Cc3ccc(Oc4nc5ccccc5s4)cc3)CC2C1` (stereo not drawn) [Example 104, {5-[4-(Benzothiazol-2-yloxy)-benzyl]-hexahydro-pyrrolo[3,4-c]pyrrol-2-yl}-cyclobutyl-methanone], with 62 nM.
Then `CC(=O)N1C[C@@H]2C[C@H]1CN2CCc1ccc(Oc2nc3ccccc3s2)cc1` [Example 7, (S,S)-1-(5-{2-[4-(Benzothiazol-2-yloxy)-phenyl]-ethyl}-2,5-diaza-bicyclo[2.2.1]hept-2-yl)-ethanone], with 13 nM.
On to `CC(=O)N[C@H]1C[C@H]2CC[C@@H](C1)N2CCOc1ccc(Oc2nc3cc(F)ccc3s2)cc1` [Example 216, meso-endo-N-(8-{2-[4-(5-Fluoro-benzothiazol-2-yloxy)-phenoxy]-ethyl}-8-aza-bicyclo[3.2.1]oct-3-yl)-acetamide], for which the Ki was 100 nM.
Then `CC(=O)N[C@H]1C[C@H]2CC[C@@H](C1)N2CCOc1ccc(Oc2nc3c(F)cccc3s2)cc1` [Example 273, meso-endo-N-(8-{2-[4-(4-Fluoro-benzothiazol-2-yloxy)-phenoxy]-ethyl}-8-aza-bicyclo[3.2.1]oct-3-yl)-acetamide], with 16 nM; and `CS(=O)(=O)N[C@@H]1C[C@H]2CC[C@@H](C1)N2CCc1ccc(Oc2nc3ccc(F)cc3s2)cc1` [Example 231, meso-exo-N-(8-{2-[4-(6-Fluoro-benzothiazol-2-yloxy)-phenyl]-ethyl}-8-aza-bicyclo[3.2.1]oct-3-yl)-methanesulfonamide], with 17 nM; and `CS(=O)(=O)N1[C@@H]2CC[C@H]1C[C@@H](NCCOc1ccc(Oc3nc4cccc(Cl)c4s3)cc1)C2` [Example 248, meso-endo-{2-[4-(7-Chloro-benzothiazol-2-yloxy)-phenoxy]-ethyl}-(8-methanesulfonyl-8-aza-bicyclo[3.2.1]oct-3-yl)-amine], with 3130 nM.
In the case of `Cc1ccc2nc(Oc3ccc(CCN4[C@@H]5CC[C@H]4C[C@@H](NC(N)=O)C5)cc3)sc2c1` [Example 261, meso-endo-(8-{2-[4-(6-Methyl-benzothiazol-2-yloxy)-phenyl]-ethyl}-8-aza-bicyclo[3.2.1]oct-3-yl)-urea], the Ki was 100 nM.
